Laboratory results: the NIST ThermoML archive (doi:10.1016/j.jct.2012.03.008)
Numbers after ± are expanded uncertainties.

Settings: Pendant drop shape

CCn1cc[n+](C)c1.O=S(=O)([O-])C(F)(F)F [1-ethyl-3-methylimidazolium trifluoromethanesulfonate]
surface tension liquid-gas (298.2 K): 41.3 ± 0.5 mN/m
surface tension liquid-gas (308.1 K): 41 ± 0.45 mN/m
surface tension liquid-gas (318.1 K): 40.48 ± 0.44 mN/m
surface tension liquid-gas (328.4 K): 39.9 ± 0.7 mN/m
surface tension liquid-gas (338.3 K): 39.5 ± 0.7 mN/m
surface tension liquid-gas (344.9 K): 39.3 ± 0.43 mN/m

CCn1cc[n+](C)c1.COP(=O)([O-])OC [1-ethyl-3-methylimidazolium dimethylphosphate]
surface tension liquid-gas (308.2 K): 45.3 ± 0.9 mN/m
surface tension liquid-gas (318 K): 44.7 ± 0.8 mN/m
surface tension liquid-gas (328.7 K): 44.4 ± 0.7 mN/m
surface tension liquid-gas (338.6 K): 43.8 ± 0.7 mN/m
surface tension liquid-gas (343.5 K): 43.3 ± 0.6 mN/m

CCCCn1cc[n+](C)c1.F[P-](F)(F)(F)(F)F [1-butyl-3-methylimidazolium hexafluorophosphate]
surface tension liquid-gas (298.1 K): 43.81 ± 0.47 mN/m
surface tension liquid-gas (303.2 K): 43.44 ± 0.47 mN/m
surface tension liquid-gas (313.1 K): 42.72 ± 0.46 mN/m
surface tension liquid-gas (323.1 K): 42.19 ± 0.46 mN/m
surface tension liquid-gas (333.1 K): 41.61 ± 0.45 mN/m
surface tension liquid-gas (343.7 K): 41.07 ± 0.45 mN/m

CCn1cc[n+](C)c1.N#CN=C=[N-] [1-ethyl-3-methylimidazolium dicyanamide]
surface tension liquid-gas (298.3 K): 57.5 ± 0.8 mN/m
surface tension liquid-gas (308.2 K): 56.6 ± 1 mN/m
surface tension liquid-gas (318.3 K): 56.4 ± 0.8 mN/m
surface tension liquid-gas (328.2 K): 56 ± 0.7 mN/m
surface tension liquid-gas (338.5 K): 55 ± 0.8 mN/m
surface tension liquid-gas (343.4 K): 54.9 ± 0.8 mN/m

CCCCn1cc[n+](C)c1.F[B-](F)(F)F [1-butyl-3-methylimidazolium tetrafluoroborate]
surface tension liquid-gas (298 K): 45.44 ± 0.49 mN/m
surface tension liquid-gas (307.9 K): 44.57 ± 0.48 mN/m
surface tension liquid-gas (317.9 K): 43.91 ± 0.47 mN/m
surface tension liquid-gas (328.4 K): 43.15 ± 0.47 mN/m
surface tension liquid-gas (338.4 K): 42.49 ± 0.46 mN/m
surface tension liquid-gas (343.1 K): 42.17 ± 0.46 mN/m

CCn1cc[n+](C)c1.N#C[S-] [1-ethyl-3-methylimidazolium thiocyanate]
surface tension liquid-gas (298.2 K): 53.3 ± 1 mN/m
surface tension liquid-gas (308.2 K): 52.3 ± 1 mN/m
surface tension liquid-gas (318.2 K): 51.8 ± 0.9 mN/m
surface tension liquid-gas (328.2 K): 50.5 ± 0.8 mN/m
surface tension liquid-gas (338.3 K): 49.8 ± 1.1 mN/m
surface tension liquid-gas (343.2 K): 49.4 ± 0.8 mN/m

CCn1cc[n+](C)c1.CS(=O)(=O)[O-] [1-ethyl-3-methylimidazolium methanesulfonate]
surface tension liquid-gas (298.5 K): 50.9 ± 0.8 mN/m
surface tension liquid-gas (308 K): 50.3 ± 0.8 mN/m
surface tension liquid-gas (317.9 K): 49.7 ± 0.8 mN/m
surface tension liquid-gas (328.1 K): 49.1 ± 0.8 mN/m
surface tension liquid-gas (338.1 K): 48.1 ± 0.6 mN/m
surface tension liquid-gas (342.7 K): 47.7 ± 0.6 mN/m

CCCC[n+]1ccn(C)c1.O=S(=O)([N-]S(=O)(=O)C(F)(F)F)C(F)(F)F
surface tension liquid-gas (298.2 K): 33.35 ± 0.38 mN/m
surface tension liquid-gas (308.2 K): 32.85 ± 0.37 mN/m
surface tension liquid-gas (318.2 K): 32.25 ± 0.37 mN/m
surface tension liquid-gas (328.2 K): 31.69 ± 0.36 mN/m
surface tension liquid-gas (338.2 K): 31.14 ± 0.35 mN/m
surface tension liquid-gas (343.2 K): 30.76 ± 0.35 mN/m

CCn1cc[n+](C)c1.Cc1ccc(S(=O)(=O)[O-])cc1 [1-ethyl-3-methylimidazolium 4-methylbenzenesulfonate]
surface tension liquid-gas (308.1 K): 45.2 ± 0.6 mN/m
surface tension liquid-gas (318 K): 44.2 ± 0.6 mN/m
surface tension liquid-gas (328.5 K): 43.6 ± 0.6 mN/m
surface tension liquid-gas (338.3 K): 43 ± 0.6 mN/m
surface tension liquid-gas (343.2 K): 42.7 ± 0.6 mN/m

CCn1cc[n+](C)c1.CO[PH](=O)[O-] [1-ethyl-3-methylimidazolium methyl phosphonate]
surface tension liquid-gas (298.2 K): 49 ± 0.6 mN/m
surface tension liquid-gas (308.4 K): 48.3 ± 0.6 mN/m
surface tension liquid-gas (318 K): 47.9 ± 0.8 mN/m
surface tension liquid-gas (328.6 K): 47.2 ± 0.6 mN/m
surface tension liquid-gas (338.5 K): 46.7 ± 0.6 mN/m
surface tension liquid-gas (343.1 K): 46.3 ± 0.5 mN/m

CCCCn1cc[n+](C)c1.O=S(=O)([O-])C(F)(F)F [1-butyl-3-methylimidazolium trifluoromethanesulfonate]
surface tension liquid-gas (298.1 K): 35.86 ± 0.4 mN/m
surface tension liquid-gas (307.9 K): 35.29 ± 0.4 mN/m
surface tension liquid-gas (318 K): 34.95 ± 0.4 mN/m
surface tension liquid-gas (328.1 K): 34.64 ± 0.41 mN/m
surface tension liquid-gas (338.3 K): 34.3 ± 0.38 mN/m

CC(=O)[O-].CCn1cc[n+](C)c1 [1-ethyl-3-methylimidazolium acetate]
surface tension liquid-gas (298.1 K): 47.06 ± 0.5 mN/m
surface tension liquid-gas (308.2 K): 46.53 ± 0.5 mN/m
surface tension liquid-gas (318.2 K): 45.89 ± 0.49 mN/m
surface tension liquid-gas (328.2 K): 45.33 ± 0.48 mN/m
surface tension liquid-gas (338.3 K): 44.74 ± 0.48 mN/m
